Source: ChEMBL document CHEMBL1139649, “Hetaryl imidazoles: a novel dual inhibitors of VEGF receptors I and II” (Bioorg Med Chem Lett, 2006)

Molecular target: cAMP-dependent protein kinase (PKA) (Homo sapiens) (UniProt P22694+P17612+P22612)
Assay: Inhibition against PKA at 10 uM by HTRF method
Type: protein assay
Parameters: scale not given: the % may be the effect or the level left

Activity [%] | Compound
< 30 | Cn1cnc(NCc2ccncc2)c1-c1nnc(Nc2ccc(-c3ccccc3)cc2)o1
< 30 | Cn1cnc(NCc2ccccn2)c1-c1nnc(Nc2ccc(Cl)cc2)o1
< 30 | Cn1cnc(NCc2ccncc2)c1-c1nnc(Nc2ccc(Cl)c(Cl)c2)o1
< 30 | Cn1cnc(NCc2ccncc2)c1-c1nnc(Nc2cccc(OC(F)(F)F)c2)o1

Molecular target: Insulin-like growth factor 1 receptor (Homo sapiens) (UniProt P08069)
Assay: […] against IGF1R at 10 uM by HTRF method

Activity [%] | Compound
< 30 | Cn1cnc(NCc2ccncc2)c1-c1nnc(Nc2ccc(-c3ccccc3)cc2)o1
< 30 | Cn1cnc(NCc2ccccn2)c1-c1nnc(Nc2ccc(Cl)cc2)o1
< 30 | Cn1cnc(NCc2ccncc2)c1-c1nnc(Nc2ccc(Cl)c(Cl)c2)o1
< 30 | Cn1cnc(NCc2ccncc2)c1-c1nnc(Nc2cccc(OC(F)(F)F)c2)o1

Molecular target: Bcr/Abl fusion protein (Homo sapiens) (UniProt P00519+P11274)
Assay: Inhibition of bcr-Abl at 10 uM by HTRF method
Type: protein assay
Parameters: scale not given: the % may be the effect or the level left

Activity [%] | Compound
< 30 | Cn1cnc(NCc2ccncc2)c1-c1nnc(Nc2ccc(-c3ccccc3)cc2)o1
< 30 | Cn1cnc(NCc2ccccn2)c1-c1nnc(Nc2ccc(Cl)cc2)o1
< 30 | Cn1cnc(NCc2ccncc2)c1-c1nnc(Nc2ccc(Cl)c(Cl)c2)o1
< 30 | Cn1cnc(NCc2ccncc2)c1-c1nnc(Nc2cccc(OC(F)(F)F)c2)o1

Molecular target: Cyclin-dependent kinase 2 (Homo sapiens) (UniProt P24941)
Assay: […] against Cdk2 at 10 uM by HTRF method

Percent inhibition [%] | Compound
< 30 | Cn1cnc(NCc2ccncc2)c1-c1nnc(Nc2ccc(-c3ccccc3)cc2)o1
< 30 | Cn1cnc(NCc2ccccn2)c1-c1nnc(Nc2ccc(Cl)cc2)o1
< 30 | Cn1cnc(NCc2ccncc2)c1-c1nnc(Nc2ccc(Cl)c(Cl)c2)o1
< 30 | Cn1cnc(NCc2ccncc2)c1-c1nnc(Nc2cccc(OC(F)(F)F)c2)o1

Molecular target: RAC-alpha serine/threonine-protein kinase (Homo sapiens) (UniProt P31749)
Sequence (P31749 whole entry): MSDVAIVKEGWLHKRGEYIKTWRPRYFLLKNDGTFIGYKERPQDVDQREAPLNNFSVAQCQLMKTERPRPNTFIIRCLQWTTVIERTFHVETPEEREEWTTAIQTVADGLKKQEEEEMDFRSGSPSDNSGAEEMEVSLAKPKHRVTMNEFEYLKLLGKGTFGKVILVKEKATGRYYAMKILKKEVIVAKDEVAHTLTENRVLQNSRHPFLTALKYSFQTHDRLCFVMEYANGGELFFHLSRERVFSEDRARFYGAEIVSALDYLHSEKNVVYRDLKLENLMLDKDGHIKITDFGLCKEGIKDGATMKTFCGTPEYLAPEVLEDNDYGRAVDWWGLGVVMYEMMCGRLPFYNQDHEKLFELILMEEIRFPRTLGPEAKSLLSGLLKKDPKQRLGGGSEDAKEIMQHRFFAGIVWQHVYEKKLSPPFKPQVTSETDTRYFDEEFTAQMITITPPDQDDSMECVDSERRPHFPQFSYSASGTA
Assay: […] against PKB/Akt at 10 uM by HTRF method

Activity [%] | Compound
< 30 | Cn1cnc(NCc2ccncc2)c1-c1nnc(Nc2ccc(-c3ccccc3)cc2)o1
< 30 | Cn1cnc(NCc2ccccn2)c1-c1nnc(Nc2ccc(Cl)cc2)o1
< 30 | Cn1cnc(NCc2ccncc2)c1-c1nnc(Nc2ccc(Cl)c(Cl)c2)o1
< 30 | Cn1cnc(NCc2ccncc2)c1-c1nnc(Nc2cccc(OC(F)(F)F)c2)o1

Molecular target: Glycogen synthase kinase-3 beta (Homo sapiens) (UniProt P49841)
Sequence (P49841 whole entry, looked up): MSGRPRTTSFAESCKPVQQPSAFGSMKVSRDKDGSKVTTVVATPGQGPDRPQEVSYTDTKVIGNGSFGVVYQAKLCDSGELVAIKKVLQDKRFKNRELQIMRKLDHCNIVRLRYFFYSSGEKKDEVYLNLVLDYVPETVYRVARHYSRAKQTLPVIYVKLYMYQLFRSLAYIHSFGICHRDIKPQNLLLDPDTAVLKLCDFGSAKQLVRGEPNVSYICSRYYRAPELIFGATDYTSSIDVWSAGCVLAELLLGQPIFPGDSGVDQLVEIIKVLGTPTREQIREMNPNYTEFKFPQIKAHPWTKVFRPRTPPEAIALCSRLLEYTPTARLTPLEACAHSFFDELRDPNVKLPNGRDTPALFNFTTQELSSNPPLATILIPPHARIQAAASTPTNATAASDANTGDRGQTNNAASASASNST
Assay: Inhibition against GSK3-beta at 10 uM by HTRF method
Parameters: scale not given: the % may be the effect or the level left

Activity [%] | Compound
< 30 | Cn1cnc(NCc2ccncc2)c1-c1nnc(Nc2ccc(-c3ccccc3)cc2)o1
< 30 | Cn1cnc(NCc2ccccn2)c1-c1nnc(Nc2ccc(Cl)cc2)o1
< 30 | Cn1cnc(NCc2ccncc2)c1-c1nnc(Nc2ccc(Cl)c(Cl)c2)o1
< 30 | Cn1cnc(NCc2ccncc2)c1-c1nnc(Nc2cccc(OC(F)(F)F)c2)o1

Molecular target: Fibroblast growth factor receptor 1 (Homo sapiens) (UniProt P11362)
Sequence (P11362 22-822 limits assumed): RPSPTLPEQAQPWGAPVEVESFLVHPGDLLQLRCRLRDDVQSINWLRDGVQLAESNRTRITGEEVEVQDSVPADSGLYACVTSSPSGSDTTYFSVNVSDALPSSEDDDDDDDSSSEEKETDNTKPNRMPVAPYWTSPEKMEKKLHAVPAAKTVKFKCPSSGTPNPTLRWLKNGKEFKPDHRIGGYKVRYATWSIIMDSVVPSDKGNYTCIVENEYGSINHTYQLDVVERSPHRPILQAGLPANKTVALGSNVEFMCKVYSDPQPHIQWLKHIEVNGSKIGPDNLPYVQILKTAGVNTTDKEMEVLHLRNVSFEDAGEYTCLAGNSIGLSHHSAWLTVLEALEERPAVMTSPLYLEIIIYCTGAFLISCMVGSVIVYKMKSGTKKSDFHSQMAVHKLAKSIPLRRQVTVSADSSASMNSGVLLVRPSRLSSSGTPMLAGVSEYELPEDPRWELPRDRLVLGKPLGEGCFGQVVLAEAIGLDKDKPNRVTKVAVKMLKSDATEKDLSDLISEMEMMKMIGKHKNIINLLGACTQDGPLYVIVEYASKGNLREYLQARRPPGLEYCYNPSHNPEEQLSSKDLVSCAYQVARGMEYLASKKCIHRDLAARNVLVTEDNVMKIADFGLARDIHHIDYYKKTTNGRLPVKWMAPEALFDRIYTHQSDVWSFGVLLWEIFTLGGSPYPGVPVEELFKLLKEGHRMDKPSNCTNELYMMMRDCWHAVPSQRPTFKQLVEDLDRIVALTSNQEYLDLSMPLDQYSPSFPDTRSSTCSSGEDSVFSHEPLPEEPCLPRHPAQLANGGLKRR
Assay: Percent inhibition against FGFR1 at 10 uM by HTRF method
Parameters: scale not given: the % may be the effect or the level left

Activity [%] | Compound
< 30 | Cn1cnc(NCc2ccncc2)c1-c1nnc(Nc2ccc(-c3ccccc3)cc2)o1
< 30 | Cn1cnc(NCc2ccccn2)c1-c1nnc(Nc2ccc(Cl)cc2)o1
< 30 | Cn1cnc(NCc2ccncc2)c1-c1nnc(Nc2ccc(Cl)c(Cl)c2)o1
< 30 | Cn1cnc(NCc2ccncc2)c1-c1nnc(Nc2cccc(OC(F)(F)F)c2)o1

Molecular target: Receptor-type tyrosine-protein kinase FLT3 (Homo sapiens) (UniProt P36888)
Sequence (P36888 whole entry): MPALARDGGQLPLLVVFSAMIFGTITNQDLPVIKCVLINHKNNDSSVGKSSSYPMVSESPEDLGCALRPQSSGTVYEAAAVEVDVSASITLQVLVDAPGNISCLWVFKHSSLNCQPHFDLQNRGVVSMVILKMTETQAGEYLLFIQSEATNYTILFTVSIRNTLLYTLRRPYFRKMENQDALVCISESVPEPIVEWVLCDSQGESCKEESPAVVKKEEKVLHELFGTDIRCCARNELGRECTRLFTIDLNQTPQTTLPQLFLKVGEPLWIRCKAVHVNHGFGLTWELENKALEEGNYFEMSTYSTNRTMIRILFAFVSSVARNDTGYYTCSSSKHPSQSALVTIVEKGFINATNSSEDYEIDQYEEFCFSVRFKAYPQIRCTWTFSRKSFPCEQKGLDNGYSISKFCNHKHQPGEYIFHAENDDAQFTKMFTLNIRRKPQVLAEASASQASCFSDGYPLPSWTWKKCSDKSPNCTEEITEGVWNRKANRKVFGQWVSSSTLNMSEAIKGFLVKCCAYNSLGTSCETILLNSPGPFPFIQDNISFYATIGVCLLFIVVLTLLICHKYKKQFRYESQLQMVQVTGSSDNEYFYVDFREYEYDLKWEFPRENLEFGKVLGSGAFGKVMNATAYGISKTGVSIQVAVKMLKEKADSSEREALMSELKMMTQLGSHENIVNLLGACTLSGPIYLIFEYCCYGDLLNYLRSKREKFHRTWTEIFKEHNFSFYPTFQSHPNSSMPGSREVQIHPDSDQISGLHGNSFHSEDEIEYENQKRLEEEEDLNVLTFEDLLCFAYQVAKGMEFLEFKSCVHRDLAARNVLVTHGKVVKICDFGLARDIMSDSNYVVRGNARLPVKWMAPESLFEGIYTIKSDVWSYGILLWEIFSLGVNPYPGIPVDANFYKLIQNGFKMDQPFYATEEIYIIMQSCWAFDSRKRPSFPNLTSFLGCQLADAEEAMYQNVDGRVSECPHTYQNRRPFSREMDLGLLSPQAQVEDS
Assay: Inhibition of Flt3 at 10 uM by HTRF method
Parameters: scale not given: the % may be the effect or the level left

Activity [%] | Compound
< 30 | Cn1cnc(NCc2ccncc2)c1-c1nnc(Nc2ccc(-c3ccccc3)cc2)o1
< 30 | Cn1cnc(NCc2ccccn2)c1-c1nnc(Nc2ccc(Cl)cc2)o1
< 30 | Cn1cnc(NCc2ccncc2)c1-c1nnc(Nc2ccc(Cl)c(Cl)c2)o1
< 30 | Cn1cnc(NCc2ccncc2)c1-c1nnc(Nc2cccc(OC(F)(F)F)c2)o1

Molecular target: Epidermal growth factor receptor (Homo sapiens) (UniProt P00533)
Assay: […] against ErbB1 at 10 uM by HTRF method

Percent inhibition [%] | Compound
< 30 | Cn1cnc(NCc2ccncc2)c1-c1nnc(Nc2ccc(-c3ccccc3)cc2)o1
< 30 | Cn1cnc(NCc2ccccn2)c1-c1nnc(Nc2ccc(Cl)cc2)o1
< 30 | Cn1cnc(NCc2ccncc2)c1-c1nnc(Nc2ccc(Cl)c(Cl)c2)o1
< 30 | Cn1cnc(NCc2ccncc2)c1-c1nnc(Nc2cccc(OC(F)(F)F)c2)o1

Molecular target: T1, Ephrin type-B receptor 4 (Homo sapiens) (UniProt P54760)
T1 sequence (whole entry): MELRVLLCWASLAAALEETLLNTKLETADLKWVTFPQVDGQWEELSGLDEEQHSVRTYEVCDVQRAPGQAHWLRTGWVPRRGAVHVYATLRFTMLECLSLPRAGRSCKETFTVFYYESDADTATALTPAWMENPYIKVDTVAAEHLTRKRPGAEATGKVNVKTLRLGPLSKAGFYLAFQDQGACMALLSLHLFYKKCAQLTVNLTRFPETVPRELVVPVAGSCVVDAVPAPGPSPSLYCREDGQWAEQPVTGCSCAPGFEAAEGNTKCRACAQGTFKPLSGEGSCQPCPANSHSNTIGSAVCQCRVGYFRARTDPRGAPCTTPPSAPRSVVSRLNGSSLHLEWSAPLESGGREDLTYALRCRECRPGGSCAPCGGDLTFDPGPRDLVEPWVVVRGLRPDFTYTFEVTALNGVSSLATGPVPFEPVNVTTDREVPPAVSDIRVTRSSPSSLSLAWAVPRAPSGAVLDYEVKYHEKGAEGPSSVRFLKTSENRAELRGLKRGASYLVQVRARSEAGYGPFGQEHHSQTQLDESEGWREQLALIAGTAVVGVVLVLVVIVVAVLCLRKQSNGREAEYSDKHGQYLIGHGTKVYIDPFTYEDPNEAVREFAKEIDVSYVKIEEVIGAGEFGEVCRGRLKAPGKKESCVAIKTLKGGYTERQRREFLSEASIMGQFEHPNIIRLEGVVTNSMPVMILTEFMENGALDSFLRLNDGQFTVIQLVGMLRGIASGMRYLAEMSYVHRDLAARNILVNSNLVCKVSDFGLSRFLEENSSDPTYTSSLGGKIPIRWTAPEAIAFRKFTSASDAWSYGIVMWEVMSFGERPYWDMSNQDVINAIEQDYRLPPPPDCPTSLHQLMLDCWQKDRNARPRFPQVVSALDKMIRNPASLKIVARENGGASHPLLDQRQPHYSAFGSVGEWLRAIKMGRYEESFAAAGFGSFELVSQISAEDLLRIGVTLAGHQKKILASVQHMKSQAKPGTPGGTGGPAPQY
Assay: Percent inhibition against EphB4 at 10 uM by HTRF method
Parameters: scale not given: the % may be the effect or the level left

Activity [%] | Compound
< 30 | Cn1cnc(NCc2ccncc2)c1-c1nnc(Nc2ccc(-c3ccccc3)cc2)o1
< 30 | Cn1cnc(NCc2ccccn2)c1-c1nnc(Nc2ccc(Cl)cc2)o1
< 30 | Cn1cnc(NCc2ccncc2)c1-c1nnc(Nc2ccc(Cl)c(Cl)c2)o1
< 30 | Cn1cnc(NCc2ccncc2)c1-c1nnc(Nc2cccc(OC(F)(F)F)c2)o1

Molecular target: Cyclin-dependent kinase 5 (Homo sapiens) (UniProt Q00535)
Sequence (Q00535 whole entry, looked up): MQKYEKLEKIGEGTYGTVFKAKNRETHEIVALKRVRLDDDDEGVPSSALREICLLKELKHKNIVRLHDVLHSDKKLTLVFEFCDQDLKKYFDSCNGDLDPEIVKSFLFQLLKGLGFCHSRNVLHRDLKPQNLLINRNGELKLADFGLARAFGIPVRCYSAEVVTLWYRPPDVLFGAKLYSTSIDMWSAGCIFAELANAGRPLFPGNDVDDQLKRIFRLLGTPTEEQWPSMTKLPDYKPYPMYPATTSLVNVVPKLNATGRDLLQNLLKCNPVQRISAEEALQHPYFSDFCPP
Assay: […] against Cdk5 at 10 uM by HTRF method

Activity [%] | Compound
< 30 | Cn1cnc(NCc2ccncc2)c1-c1nnc(Nc2ccc(-c3ccccc3)cc2)o1
< 30 | Cn1cnc(NCc2ccccn2)c1-c1nnc(Nc2ccc(Cl)cc2)o1
< 30 | Cn1cnc(NCc2ccncc2)c1-c1nnc(Nc2ccc(Cl)c(Cl)c2)o1
< 30 | Cn1cnc(NCc2ccncc2)c1-c1nnc(Nc2cccc(OC(F)(F)F)c2)o1

Molecular target: Vascular endothelial growth factor receptor 1 (Homo sapiens, UniProt P17948)
Assay: Inhibition of VEGFR1 by enzymatic assay

IC50 [nM] | Compound
> 10000 | Cn1cnc(NCc2ccncc2)c1-c1nnc(Nc2ccc(-c3ccccc3)cc2)o1
> 10000 | Cn1cnc(NCc2ccccn2)c1-c1nnc(Nc2ccc(Cl)cc2)o1
490 | Cn1cnc(NCc2ccncc2)c1-c1nnc(Nc2ccc(Cl)c(Cl)c2)o1
560 | Cn1cnc(NCc2ccncc2)c1-c1nnc(Nc2cccc(OC(F)(F)F)c2)o1

Molecular target: T2, Vascular endothelial growth factor receptor 2 (Homo sapiens, UniProt P35968)
T2 sequence (P35968 whole entry): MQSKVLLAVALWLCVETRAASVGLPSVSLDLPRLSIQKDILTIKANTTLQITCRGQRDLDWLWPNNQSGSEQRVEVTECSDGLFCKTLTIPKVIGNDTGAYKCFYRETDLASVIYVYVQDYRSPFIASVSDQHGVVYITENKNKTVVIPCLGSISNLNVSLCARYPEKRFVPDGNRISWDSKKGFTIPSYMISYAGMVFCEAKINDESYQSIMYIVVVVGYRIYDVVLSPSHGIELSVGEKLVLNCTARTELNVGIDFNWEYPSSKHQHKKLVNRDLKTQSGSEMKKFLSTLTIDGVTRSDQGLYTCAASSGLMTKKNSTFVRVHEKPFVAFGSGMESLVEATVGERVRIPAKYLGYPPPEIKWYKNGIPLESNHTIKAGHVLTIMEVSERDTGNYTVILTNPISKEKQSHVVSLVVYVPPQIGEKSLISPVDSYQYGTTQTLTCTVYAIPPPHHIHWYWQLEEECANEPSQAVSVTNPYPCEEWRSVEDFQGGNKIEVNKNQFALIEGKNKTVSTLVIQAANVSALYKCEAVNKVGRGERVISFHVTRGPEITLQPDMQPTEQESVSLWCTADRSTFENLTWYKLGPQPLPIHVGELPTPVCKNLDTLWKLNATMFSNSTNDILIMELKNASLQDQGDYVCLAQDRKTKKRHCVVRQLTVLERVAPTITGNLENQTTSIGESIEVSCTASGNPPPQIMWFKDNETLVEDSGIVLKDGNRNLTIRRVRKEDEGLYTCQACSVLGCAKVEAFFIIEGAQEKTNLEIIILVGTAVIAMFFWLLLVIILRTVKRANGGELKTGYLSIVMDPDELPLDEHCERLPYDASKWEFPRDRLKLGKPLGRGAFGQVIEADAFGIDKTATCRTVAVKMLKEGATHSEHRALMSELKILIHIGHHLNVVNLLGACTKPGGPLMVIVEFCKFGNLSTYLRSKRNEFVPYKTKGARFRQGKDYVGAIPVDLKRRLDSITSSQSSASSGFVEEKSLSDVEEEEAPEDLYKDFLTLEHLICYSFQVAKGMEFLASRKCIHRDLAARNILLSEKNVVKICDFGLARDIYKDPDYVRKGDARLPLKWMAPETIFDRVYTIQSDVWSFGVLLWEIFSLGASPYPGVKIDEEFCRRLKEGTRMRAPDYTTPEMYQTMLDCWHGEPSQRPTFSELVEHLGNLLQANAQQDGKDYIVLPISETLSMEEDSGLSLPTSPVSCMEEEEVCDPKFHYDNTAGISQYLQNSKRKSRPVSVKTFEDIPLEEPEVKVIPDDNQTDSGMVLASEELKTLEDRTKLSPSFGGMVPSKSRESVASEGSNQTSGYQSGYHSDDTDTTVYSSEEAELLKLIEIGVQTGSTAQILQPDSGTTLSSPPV
Assay: Inhibition of VEGFR2 in 293 adenovirus transfected kidney cells by cell-based ELISA assay

IC50 [nM] | Compound
> 10000 | Cn1cnc(NCc2ccccn2)c1-c1nnc(Nc2ccc(Cl)cc2)o1
260 | Cn1cnc(NCc2ccncc2)c1-c1nnc(Nc2ccc(Cl)c(Cl)c2)o1
130 | Cn1cnc(NCc2ccncc2)c1-c1nnc(Nc2cccc(OC(F)(F)F)c2)o1

Molecular target: T2, Vascular endothelial growth factor receptor 2
Assay: Inhibition of VEGFR2 by enzymatic assay

IC50 [nM] | Compound
3220 | Cn1cnc(NCc2ccncc2)c1-c1nnc(Nc2ccc(-c3ccccc3)cc2)o1
> 10000 | Cn1cnc(NCc2ccccn2)c1-c1nnc(Nc2ccc(Cl)cc2)o1
180 | Cn1cnc(NCc2ccncc2)c1-c1nnc(Nc2ccc(Cl)c(Cl)c2)o1
46 | Cn1cnc(NCc2ccncc2)c1-c1nnc(Nc2cccc(OC(F)(F)F)c2)o1

Molecular target: Hepatocyte growth factor receptor (Homo sapiens) (UniProt P08581)
Assay: Percent inhibition against c-Met at 10 uM by HTRF method
Parameters: scale not given: the % may be the effect or the level left

Activity [%] | Compound
< 30 | Cn1cnc(NCc2ccncc2)c1-c1nnc(Nc2ccc(-c3ccccc3)cc2)o1
< 30 | Cn1cnc(NCc2ccccn2)c1-c1nnc(Nc2ccc(Cl)cc2)o1
< 30 | Cn1cnc(NCc2ccncc2)c1-c1nnc(Nc2ccc(Cl)c(Cl)c2)o1
< 30 | Cn1cnc(NCc2ccncc2)c1-c1nnc(Nc2cccc(OC(F)(F)F)c2)o1

Molecular target: Receptor tyrosine-protein kinase erbB-2 (Homo sapiens) (UniProt P04626)
Assay: […] against ErbB2 at 10 uM by HTRF method

Activity [%] | Compound
< 30 | Cn1cnc(NCc2ccncc2)c1-c1nnc(Nc2ccc(-c3ccccc3)cc2)o1
< 30 | Cn1cnc(NCc2ccccn2)c1-c1nnc(Nc2ccc(Cl)cc2)o1
< 30 | Cn1cnc(NCc2ccncc2)c1-c1nnc(Nc2ccc(Cl)c(Cl)c2)o1
< 30 | Cn1cnc(NCc2ccncc2)c1-c1nnc(Nc2cccc(OC(F)(F)F)c2)o1
